Reference: article PMC7101356, “Cross-site and cross-platform variability of automated patch clamp assessments of drug effects on human cardiac currents in recombinant cells” (Scientific Reports, 2020)
pIC50: −log10 of the molar value.

Key:
late hNav1.5 = target: T1, late hNav1.5 (Homo sapiens, UniProt Q14524); assay: Automated patch clamp, late hNav1.5 current block (ATX-II activated); assay type: cell-based
T1 construct: expressed in transfected cells; host or cells: HEK293 or CHO, depending on site
Method: However, all external solutions contained 30 nM ATX-II in order to activate late current. Late current was measured at its maximum during the repolarizing ramp.
(§1) Concentration-response relationships for each test article were independently investigated, i.e., each cell received only one test article, typically evaluating multiple concentrations in a cumulative fashion (lowest to highest concentrations). However, some platforms tested only one concentration per well. Each concentration response was based on a minimum of four concentrations, with a minimum of three wells used for each concentration. In cases of high variability, more cells per concentration were recorded. Prior to drug addition, cells received an addition of vehicle to measure non-test article-related effects such as addition artifacts. At the end of the experiment, a supramaximal concentration of a known inhibitory reference compound was applied to assess leak current and appropriate responsiveness of the test system.
(§2) The steady state current at each concentration was used to determine the concentration-response relationships. Mean concentration-response data were fitted to a standard sigmoidal four-parameter logistic equation (GraphPad Prism 7; GraphPad Inc., La Jolla, CA) of the form: Y=Bottom+(Top−Bottom)/(1+10^∧(LogIC50−X)∗HillSlope) where Y is the current inhibition (in % of pre-drug control), X is the logarithm of drug concentration, and IC50 is the drug concentration producing half-maximal current inhibition. Curve fitting was performed using the following constraints: Top = 100%, Bottom = 0%, Hill Slope <2. No curve fitting was performed in cases with an obvious lack of a concentration-dependent current inhibition and/or small effect size (approximately ≤20%).

[1] = based on CiPA evaluations; cited from earlier work
peak hNav1.5 = target: T2, peak hNav1.5 (Homo sapiens, UniProt Q14524); assay: Automated patch clamp, peak hNav1.5 current block; assay type: cell-based
T2 construct: expressed in transfected cells; host or cells: HEK293 or CHO, depending on site
Method: Peak current was measured during the depolarizing step to −15 mV. Leak current was measured after applying a saturating concentration of a blocker such as lidocaine (2 mM) at the end of each experiment to completely block hNav1.5 current.
as §1, §2

hCav1.2 = hCav1.2 (Homo sapiens, UniProt Q13936); assay: Automated patch clamp, hCav1.2 current block
hERG [2] = target: T3, hERG (Homo sapiens, UniProt Q12809); assay: in vitro; settings: hERG K+ current inhibition, Mean
hERG [3] = target: T3, hERG; parameters: expressed in transfected cells; host or cells: HEK293 or CHO, depending on site (site s06, Milnes protocol: HEK293); settings: physiologic temperatures; cited from earlier work
[4] = site_platform s06_p4, 1.00E-09 mol/L
[5] = site_platform s06_p4, 3.00E-07 mol/L
[6] = site_platform s07_p6, 1.00E-09 mol/L
[7] = site_platform s07_p6, 3.00E-07 mol/L
[8] = site_platform s13_p2, 1.00E-09 mol/L
[9] = site_platform s14_p1, 3.00E-07 mol/L

T3 sequence (Q12809 whole entry): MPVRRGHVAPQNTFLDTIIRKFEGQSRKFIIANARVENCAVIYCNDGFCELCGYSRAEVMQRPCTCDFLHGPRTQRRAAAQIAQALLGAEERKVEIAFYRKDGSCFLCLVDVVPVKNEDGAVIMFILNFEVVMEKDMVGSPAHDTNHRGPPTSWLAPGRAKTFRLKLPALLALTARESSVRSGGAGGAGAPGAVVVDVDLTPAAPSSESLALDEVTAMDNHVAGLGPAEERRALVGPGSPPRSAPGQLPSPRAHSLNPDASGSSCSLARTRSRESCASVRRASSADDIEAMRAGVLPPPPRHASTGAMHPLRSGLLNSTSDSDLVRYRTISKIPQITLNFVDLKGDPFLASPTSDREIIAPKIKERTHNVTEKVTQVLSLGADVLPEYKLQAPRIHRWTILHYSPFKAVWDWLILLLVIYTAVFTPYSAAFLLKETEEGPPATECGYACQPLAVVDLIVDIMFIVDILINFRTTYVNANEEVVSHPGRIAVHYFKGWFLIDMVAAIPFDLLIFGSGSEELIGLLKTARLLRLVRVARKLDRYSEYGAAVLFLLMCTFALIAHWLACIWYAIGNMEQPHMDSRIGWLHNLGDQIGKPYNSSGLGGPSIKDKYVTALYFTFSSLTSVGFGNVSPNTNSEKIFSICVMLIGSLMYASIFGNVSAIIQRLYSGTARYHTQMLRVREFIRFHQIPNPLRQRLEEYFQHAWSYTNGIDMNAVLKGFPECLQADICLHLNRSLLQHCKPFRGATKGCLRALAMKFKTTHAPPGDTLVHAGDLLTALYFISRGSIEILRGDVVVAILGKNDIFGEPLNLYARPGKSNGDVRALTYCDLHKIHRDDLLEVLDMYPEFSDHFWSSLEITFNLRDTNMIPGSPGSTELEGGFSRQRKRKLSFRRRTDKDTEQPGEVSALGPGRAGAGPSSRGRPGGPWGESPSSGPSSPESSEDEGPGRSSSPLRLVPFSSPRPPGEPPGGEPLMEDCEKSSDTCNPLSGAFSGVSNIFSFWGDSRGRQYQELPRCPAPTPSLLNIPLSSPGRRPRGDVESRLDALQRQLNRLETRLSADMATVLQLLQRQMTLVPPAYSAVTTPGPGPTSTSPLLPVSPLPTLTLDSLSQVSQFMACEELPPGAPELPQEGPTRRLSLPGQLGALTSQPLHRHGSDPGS
T1 sequence (Q14524 whole entry): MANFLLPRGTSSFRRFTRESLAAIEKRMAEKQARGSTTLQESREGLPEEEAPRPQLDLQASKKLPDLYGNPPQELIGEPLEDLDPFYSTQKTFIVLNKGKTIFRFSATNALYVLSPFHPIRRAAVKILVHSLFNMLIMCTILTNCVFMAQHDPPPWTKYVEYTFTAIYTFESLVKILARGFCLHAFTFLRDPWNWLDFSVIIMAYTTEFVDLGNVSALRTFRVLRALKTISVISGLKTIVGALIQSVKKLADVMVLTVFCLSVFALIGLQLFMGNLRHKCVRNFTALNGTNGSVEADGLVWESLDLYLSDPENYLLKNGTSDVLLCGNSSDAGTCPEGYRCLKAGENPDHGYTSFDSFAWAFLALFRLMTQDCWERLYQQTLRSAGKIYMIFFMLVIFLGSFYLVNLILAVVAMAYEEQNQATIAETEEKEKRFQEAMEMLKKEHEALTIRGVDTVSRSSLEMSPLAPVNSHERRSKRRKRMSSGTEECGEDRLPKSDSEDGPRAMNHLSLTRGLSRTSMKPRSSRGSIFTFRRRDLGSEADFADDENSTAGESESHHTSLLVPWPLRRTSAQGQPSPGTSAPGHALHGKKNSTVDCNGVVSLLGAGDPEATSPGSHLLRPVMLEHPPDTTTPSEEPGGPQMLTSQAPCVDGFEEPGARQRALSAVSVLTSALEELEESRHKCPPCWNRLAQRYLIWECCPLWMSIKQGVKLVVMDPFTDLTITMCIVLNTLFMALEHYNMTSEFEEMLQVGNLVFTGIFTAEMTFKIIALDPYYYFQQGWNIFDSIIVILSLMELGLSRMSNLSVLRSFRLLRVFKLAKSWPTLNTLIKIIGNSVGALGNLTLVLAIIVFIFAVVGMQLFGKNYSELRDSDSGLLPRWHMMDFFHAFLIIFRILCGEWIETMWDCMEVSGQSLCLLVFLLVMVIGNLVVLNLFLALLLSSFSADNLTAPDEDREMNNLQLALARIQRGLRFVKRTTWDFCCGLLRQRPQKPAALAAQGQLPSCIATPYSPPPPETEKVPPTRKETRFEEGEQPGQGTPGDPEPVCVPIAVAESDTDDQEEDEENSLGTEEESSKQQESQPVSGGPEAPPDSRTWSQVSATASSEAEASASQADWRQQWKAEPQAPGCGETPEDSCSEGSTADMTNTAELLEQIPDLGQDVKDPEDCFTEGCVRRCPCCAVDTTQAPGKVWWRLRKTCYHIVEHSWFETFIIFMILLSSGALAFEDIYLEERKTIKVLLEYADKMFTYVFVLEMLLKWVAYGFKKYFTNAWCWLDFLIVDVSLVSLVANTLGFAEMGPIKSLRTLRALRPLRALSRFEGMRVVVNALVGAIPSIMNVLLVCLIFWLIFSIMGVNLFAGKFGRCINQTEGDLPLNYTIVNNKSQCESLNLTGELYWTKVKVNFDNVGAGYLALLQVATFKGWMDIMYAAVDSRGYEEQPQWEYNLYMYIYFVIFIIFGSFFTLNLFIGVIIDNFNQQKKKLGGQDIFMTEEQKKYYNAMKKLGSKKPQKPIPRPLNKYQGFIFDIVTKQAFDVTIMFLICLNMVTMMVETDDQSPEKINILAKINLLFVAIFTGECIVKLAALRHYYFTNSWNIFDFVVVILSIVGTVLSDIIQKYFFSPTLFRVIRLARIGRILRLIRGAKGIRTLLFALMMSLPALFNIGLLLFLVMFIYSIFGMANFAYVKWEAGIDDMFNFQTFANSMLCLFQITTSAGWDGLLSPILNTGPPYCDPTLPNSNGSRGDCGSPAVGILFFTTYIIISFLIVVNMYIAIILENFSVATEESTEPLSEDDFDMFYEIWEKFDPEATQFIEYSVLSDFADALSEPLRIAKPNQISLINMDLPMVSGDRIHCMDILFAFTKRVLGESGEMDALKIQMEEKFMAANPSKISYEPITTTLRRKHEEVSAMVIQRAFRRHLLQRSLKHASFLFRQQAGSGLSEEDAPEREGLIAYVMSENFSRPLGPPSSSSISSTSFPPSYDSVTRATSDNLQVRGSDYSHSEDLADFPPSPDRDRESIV

SMILES: COc1cc(N)c(Cl)cc1C(=O)NC1CCN(CCCOc2ccc(F)cc2)CC1OC (stereo not drawn) [cis, cisapride]
- log IC50, late hNav1.5 inhibition (late hNav1.5; site_platform s06_p4): no inh.
- Late hNav1.5 Na+ current inhibition, Mean (late hNav1.5; [4]): -0.7%
- Late hNav1.5 Na+ current inhibition, Mean (late hNav1.5; [5]): 31.8%
- log IC50, late hNav1.5 inhibition (late hNav1.5; site_platform s07_p6): no inh.
- Late hNav1.5 Na+ current inhibition, Mean (late hNav1.5; [6]): 4.3%
- Late hNav1.5 Na+ current inhibition, Mean (late hNav1.5; [7]): -17.0%
- log IC50, late hNav1.5 inhibition (late hNav1.5; site_platform s13_p2): no inh.
- Late hNav1.5 Na+ current inhibition, Mean (late hNav1.5; [8]): -16.7%
- Late hNav1.5 Na+ current inhibition, Mean (late hNav1.5; site_platform s13_p2, 3.00E-07 mol/L): 7.2%
- log IC50, late hNav1.5 inhibition (late hNav1.5; site_platform s14_p1): no inh.
- Late hNav1.5 Na+ current inhibition, Mean (late hNav1.5; site_platform s14_p1, 1.00E-09 mol/L): -6.9%
- Late hNav1.5 Na+ current inhibition, Mean (late hNav1.5; [9]): -6.3%
- TdP Risk Category [1]: Intermediate
- peak hNav1.5 Na+ current inhibition (result in words) (peak hNav1.5; no inhibition = no obvious concentration-dependent current block and/or no curve fitting performed, all sites): no inhibition
- log IC50, peak hNav1.5 Na+ current inhibition (peak hNav1.5; site_platform s01_p1): no inh.
- Peak hNav1.5 Na+ current inhibition, Mean (peak hNav1.5; site_platform s01_p1, 1.00E-09 mol/L): 55.1%
- Peak hNav1.5 Na+ current inhibition, Mean (peak hNav1.5; site_platform s01_p1, 3.00E-07 mol/L): 41.7%
- log IC50, peak hNav1.5 Na+ current inhibition (peak hNav1.5; site_platform s02_p2): no inh.
- Peak hNav1.5 Na+ current inhibition, Mean (peak hNav1.5; site_platform s02_p2, 1.00E-09 mol/L): 0.1%
- Peak hNav1.5 Na+ current inhibition, Mean (peak hNav1.5; site_platform s02_p2, 3.00E-07 mol/L): 4.3%
- log IC50, peak hNav1.5 Na+ current inhibition (peak hNav1.5; site_platform s04_p3): no inh.
- Peak hNav1.5 Na+ current inhibition, Mean (peak hNav1.5; site_platform s04_p3, 1.00E-09 mol/L): 1.4%
- Peak hNav1.5 Na+ current inhibition, Mean (peak hNav1.5; site_platform s04_p3, 3.00E-07 mol/L): 9.8%
- log IC50, peak hNav1.5 Na+ current inhibition (peak hNav1.5; site_platform s06_p4): no inh.
- Peak hNav1.5 Na+ current inhibition, Mean (peak hNav1.5; [4]): -1.5%
- Peak hNav1.5 Na+ current inhibition, Mean (peak hNav1.5; [5]): 6.3%
- log IC50, peak hNav1.5 Na+ current inhibition (peak hNav1.5; site_platform s07_p6): no inh.
- Peak hNav1.5 Na+ current inhibition, Mean (peak hNav1.5; [6]): 3.2%
- Peak hNav1.5 Na+ current inhibition, Mean (peak hNav1.5; [7]): 12.5%
- log IC50, peak hNav1.5 inhibition (peak hNav1.5; site_platform s10_p3): no inh.
- Peak hNav1.5 Na+ current inhibition, Mean (peak hNav1.5; site_platform s10_p3, 1.00E-09 mol/L): -1.1%
- Peak hNav1.5 Na+ current inhibition, Mean (peak hNav1.5; site_platform s10_p3, 3.00E-07 mol/L): 11.3%
- log IC50, peak hNav1.5 inhibition (peak hNav1.5; site_platform s11_p1): no inh.
- Peak hNav1.5 Na+ current inhibition, Mean (peak hNav1.5; site_platform s11_p1, 1.00E-09 mol/L): 8.6%
- Peak hNav1.5 Na+ current inhibition, Mean (peak hNav1.5; site_platform s11_p1, 3.00E-07 mol/L): 10.0%
- log IC50, peak hNav1.5 inhibition (peak hNav1.5; site_platform s12_p2): no inh.
- Peak hNav1.5 Na+ current inhibition, Mean (peak hNav1.5; site_platform s12_p2, 1.00E-09 mol/L): -0.2%
- Peak hNav1.5 Na+ current inhibition, Mean (peak hNav1.5; site_platform s12_p2, 3.00E-07 mol/L): 6.8%
- log IC50, peak hNav1.5 inhibition (peak hNav1.5; site_platform s13_p2): no inh.
- Peak hNav1.5 Na+ current inhibition, Mean (peak hNav1.5; [8]): -1.8%
- log IC50, peak hNav1.5 inhibition (peak hNav1.5; site_platform s14_p1): no inh.
- Peak hNav1.5 Na+ current inhibition, Mean (peak hNav1.5; [9]): -0.4%
- log IC50, peak hNav1.5 inhibition (peak hNav1.5; site_platform s15_p1): no inh.
- Peak hNav1.5 Na+ current inhibition, Mean (peak hNav1.5; site_platform s15_p1, 1.00E-09 mol/L): 10.3%
- Peak hNav1.5 Na+ current inhibition, Mean (peak hNav1.5; site_platform s15_p1, 3.00E-07 mol/L): 21.4%
- log IC50, peak hNav1.5 inhibition (peak hNav1.5; site_platform s16_p3): no inh.
- Peak hNav1.5 Na+ current inhibition, Mean (peak hNav1.5; site_platform s16_p3, 1.00E-09 mol/L): 3.1%
- Peak hNav1.5 Na+ current inhibition, Mean (peak hNav1.5; site_platform s16_p3, 3.00E-07 mol/L): 13.4%
- log IC50, peak hNav1.5 inhibition (peak hNav1.5; site_platform s17_p1): no inh.
- Peak hNav1.5 Na+ current inhibition, Mean (peak hNav1.5; site_platform s17_p1, 3.00E-07 mol/L): 1.3%
- log IC50, peak hNav1.5 inhibition (peak hNav1.5; site_platform s18_p1): no inh.
- Peak hNav1.5 Na+ current inhibition, Mean (peak hNav1.5; site_platform s18_p1, 1.00E-09 mol/L): -22.5%
- Peak hNav1.5 Na+ current inhibition, Mean (peak hNav1.5; site_platform s18_p1, 3.00E-07 mol/L): 1.0%
- log IC50, peak hNav1.5 inhibition (peak hNav1.5; site_platform s19_p3): no inh.
- Peak hNav1.5 Na+ current inhibition, Mean (peak hNav1.5; site_platform s19_p3, 1.00E-09 mol/L): 6.7%
- Peak hNav1.5 Na+ current inhibition, Mean (peak hNav1.5; site_platform s19_p3, 3.00E-07 mol/L): 20.0%
- pIC50 (hCav1.2; log IC50, half-maximal inhibitory concentration, site s16_p3): 6.35
- log IC50, half-maximal inhibitory concentration (hCav1.2; site s01_p1): no inh.
- Peak hCav1.2 Ca2+ current inhibition, Mean (hCav1.2; site s01_p1, 1.00E-09 mol/L): 7.4%
- Peak hCav1.2 Ca2+ current inhibition, Mean (hCav1.2; site s01_p1, 3.00E-07 mol/L): 8.1%
- log IC50, half-maximal inhibitory concentration (hCav1.2; site s02_p2, corrected for rundown): no inh.
- Peak hCav1.2 Ca2+ current inhibition, Mean (hCav1.2; site s02_p2, corrected for rundown, 1.00E-09 mol/L): -5.7%
- Peak hCav1.2 Ca2+ current inhibition, Mean (hCav1.2; site s02_p2, corrected for rundown, 3.00E-07 mol/L): 14.5%
- log IC50, half-maximal inhibitory concentration (hCav1.2; site s06_p4): no inh.
- Peak hCav1.2 Ca2+ current inhibition, Mean (hCav1.2; site s06_p4, 1.00E-09 mol/L): -8.1%
- Peak hCav1.2 Ca2+ current inhibition, Mean (hCav1.2; site s06_p4, 3.00E-07 mol/L): -6.0%
- log IC50, half-maximal inhibitory concentration (hCav1.2; site s11_p1): no inh.
- Peak hCav1.2 Ca2+ current inhibition, Mean (hCav1.2; site s11_p1, 1.00E-09 mol/L): 7.8%
- Peak hCav1.2 Ca2+ current inhibition, Mean (hCav1.2; site s11_p1, 3.00E-07 mol/L): 10.4%
- log IC50, half-maximal inhibitory concentration (hCav1.2; site s14_p1): no inh.
- Peak hCav1.2 Ca2+ current inhibition, Mean (hCav1.2; site s14_p1, 1.00E-09 mol/L): -10.3%
- Peak hCav1.2 Ca2+ current inhibition, Mean (hCav1.2; site s14_p1, 3.00E-07 mol/L): -19.9%
- nH, Hill slope (hCav1.2; site s16_p3): 0.24
- Peak hCav1.2 Ca2+ current inhibition, Mean (hCav1.2; site s16_p3, 1.00E-09 mol/L): 20.1%
- Peak hCav1.2 Ca2+ current inhibition, Mean (hCav1.2; site s16_p3, 3.00E-07 mol/L): 49.1%
- log IC50, half-maximal inhibitory concentration (hCav1.2; site s18_p1): no inh.
- Peak hCav1.2 Ca2+ current inhibition, Mean (hCav1.2; site s18_p1, 1.00E-09 mol/L): 2.8%
- Peak hCav1.2 Ca2+ current inhibition, Mean (hCav1.2; site s18_p1, 3.00E-07 mol/L): -16.5%
- inhibition at 4 min, 1e-09 mol/L (hERG [2]): 7.2%
- inhibition at 4 min, 3e-07 mol/L (hERG [2]): 68.5%
- inhibition at 7 min, 1e-09 mol/L (hERG [2]): 12%

SMILES: O=c1[nH]c2ccccc2n1C1CCN(CCCC(c2ccc(F)cc2)c2ccc(F)cc2)CC1 [pimozide]
- difference of hERG IC50 between two manual patch clamp laboratories (hERG [3]): 44 fold
